Consider seven molecules from article PMC7751060 (Antiviral therapy, 2012).

Series [1] concerns MNV (MNV-1.CW3). Nature of the series: MNV assay: MNV RNA levels by RT-qPCR in RAW 264.7 cells. Type of series: cell-based, murine norovirus. Particulars: for EC50 / EC90: Norwalk virus; for EC50: RAW264.7, read-out: EC50, concentration required to reduce MNV RNA copy number by 50%; for SI (CC50/EC50), MNV / Antiviral activity against MNV (RNA levels), in words: RAW 264.7 cells; for Antiviral activity against MNV (RNA levels), in words: 0.1-100 μM (RBV 10-200 μM). On the technique in general: In qPCR the cycle at which signal appears reflects the starting amount.

A short description of series [2]: Cytotoxicity assays. Type of series: cell-based. Particulars: mouse, RAW 264.7 cells.
Another series has as its system NV replicon (HG23 cells). Nature of the series: Norwalk virus replicon assay: NV RNA by RT-qPCR in HG23 cells. Type of series: cell-based. Particulars: for SI / therapeutic index (CC50/EC50), NV replicon: HG23 cells; for EC90: HG23, read-out: EC90, concentration required to reduce NV RNA copy number in HG23 cells by 90%; for Effect on NV RNA levels in HG23 cells, in words: 24-96 h post-treatment; for Reduction in NV RNA: 10 μM. On the technique in general: Replicon systems follow genome replication, usually without infectious particles.

A short description of series [3]: Cytotoxicity assays. Type of series: cell-based. Particulars: human, HG23 and Huh-7 cells.
For another series, the system named is HCV infections. Particulars: reportedly; Phase II, treatment of HCV; cited from earlier work.
In series [4] the test system is MNV (MNV-1.CW3). Put plainly: MNV assay: MNV infectivity by TCID50 in RAW 264.7 cells. Type of series: cell-based, murine norovirus. Particulars: for Effect on MNV titre (infectivity), in words: RAW 264.7 cells, TCID50.
Series [5] relates to NPT II expression in HG23 cells. Nature of the series: Western blot of NPT II expression in HG23 cells. Type of series: cell-based, Norwalk virus. Particulars: for NPT II expression, % of untreated cells: 72 h incubation; for IC50: Norwalk virus, HG23, read-out: IC50, concentration required to reduce NPT II expression in HG23 cells by 50%. (A western blot detects proteins with antibodies after separation by electrophoresis.)

The subject of a further series is HCV. Particulars: cited from earlier work.
Series [6] deals with bovine viral diarrhoea virus (BVDV). Particulars: cited from earlier work.
The conditions of series [7]: cited from earlier work.
Setting [8] is: RAW264.7, read-out: EC90, concentration required to reduce MNV RNA copy number by 90%.
Where [9] appears, read: Norwalk virus, HG23, read-out: EC50, concentration required to reduce NV RNA copy number in HG23 cells by 50%, RT-qPCR.
Setting [10] is: read-out: EC50, concentration required to reduce NV RNA copy number in HG23 cells by 50%, RT-qPCR.

Read-outs that look alike come from different tables or passages of the source.

The term CC50 denotes the concentration that lowers cell viability or growth by half. Read a low CC50 as harm at low concentration. As for `NC(=O)c1ncn([C@@H]2O[C@H](CO)[C@@H](O)[C@H]2O)n1` [RBV, ribavirin, reference compound], the figures for the EC50 in the series on MNV (MNV-1.CW3) [1] and in the series on NV replicon (HG23 cells) (setting [9]) were 63.5 ± 2.3 µM and 40000 ± 2300 nM, respectively. The EC90 in the series with MNV (MNV-1.CW3) [1] (setting [8]) came to 105 ± 1.5 µM; in the series with NV replicon (HG23 cells) (Norwalk virus), 96.3 ± 2.5 µM. In addition, in the series on MNV (MNV-1.CW3) [1], the “SI (CC50/EC50), MNV” value is greater than 1.6. In addition, the “Antiviral activity against MNV (RNA levels), in words” value (“Antiviral activity against MNV” below) in the series on MNV (MNV-1.CW3) [1] was “reduced MNV RNA levels in a dose-dependent manner at 12 h and 24 h post-treatment”. For the same molecule, the half-maximal cytotoxic concentration (CC50) at 5 days in the series “Cytotoxicity assays [2]” is greater than 100 µM; in the series “Cytotoxicity assays [3]”, greater than 200 µM. Moreover, the “SI / therapeutic index (CC50/EC50), NV replicon” value (“SI / therapeutic index” below) with NV replicon (HG23 cells) is greater than 5.0.
In the case of `CC(C)[C@H](N)C(=O)O[C@@H]1[C@@H](CO)O[C@@H](n2ccc(N)nc2=O)[C@]1(C)O` [NM-283], the “Clinical outcome in HCV trials, in words” value with HCV infections is “found to have gastrointestinal problems”.
For the molecule `O=c1nc(NO)ccn1[C@@H]1O[C@H](CO)[C@@H](O)[C@H]1O` [NHC, 1-((2R, 3R, 4S, 5R)-3,4-dihydroxy-5-(hydroxymethyl)tetrahydrofuran-2-yl)-4-(hydroxyamino) pyrimidin-2(1H)-one], the EC50 in the series on MNV (MNV-1.CW3) [1] was determined as 8.8 ± 4.2 µM; with NV replicon (HG23 cells) (setting [9]), 1500 nM; with NV replicon (HG23 cells) (setting [10]) it was 1470 ± 1100 nM. Further, in the series on MNV (MNV-1.CW3) [1], the “SI (CC50/EC50), MNV” value is on record as greater than 11.4. In addition, the “Antiviral activity against MNV” value in the series with MNV (MNV-1.CW3) [1] is on record as “Neither 3TC nor NHC had antiviral activity against MNV”. Moreover, the “Effect on MNV titre (infectivity), in words” value (from here on “Effect on MNV titre”) in the series with MNV (MNV-1.CW3) [4] is listed as “No reduction of MNV titre was observed”. Besides, the cytotoxic concentration (CC50) at 5 days in “Cytotoxicity assays [2]” and in the series “Cytotoxicity assays [3]” was greater than 100 µM throughout. In addition, the “Effect on NV RNA levels in HG23 cells, in words” value (shortened to “Effect on NV RNA levels”) with NV replicon (HG23 cells) was “dose- and time-dependent reduction of NV RNA levels”. Also, in the series with NV replicon (HG23 cells), the “SI / therapeutic index” value is reported as greater than 68.0. Moreover, the EC90 with NV replicon (HG23 cells) (Norwalk virus) is 16.6 ± 2.1 µM. Further, the “NPT II expression, % of untreated cells” value in series [5] (1 μM) was 91%; in series [5] (10 μM), 40%; in [5] (100 μM) it was 16%. Also, the IC50 in [5] came to 6 ± 1.7 µM. Also, in the series on HCV, the “Activity against HCV, in words” value is recorded as “active against HCV, BVDV”. Besides, the “Activity against BVDV, in words” value in [6] was “active against HCV, BVDV”. Moreover, the Mutagenic properties result in series [7] is given as “has mutagenic properties”.
Turning to `C[C@@]1(F)[C@H](O)[C@@H](CO)O[C@H]1n1ccc(N)nc1=O` [2′-F-2′-C-MeC, 4-amino-1-((2R, 3R, 4R, 5R)-3-fluoro-4-hydroxy-5-(hydroxymethyl)-3-methyltetrahydrofuran-2-yl) pyrimidin-2(1H)-one], in the series with MNV (MNV-1.CW3) [1], the EC50 stood at 12.7 ± 2.9 µM; the “SI (CC50/EC50), MNV” value was greater than 7.9; the “Antiviral activity against MNV” value is on record as “dose-dependent antiviral activity only at 12 h post-treatment”. Further, in the series with MNV (MNV-1.CW3) [1] (setting [8]), the EC90 stood at 91.2 ± 2.8 µM. The IC50 in the series with MNV (MNV-1.CW3) [4] (Norwalk virus, RAW264.7, 12 h, read-out: IC50, MNV infectivity) amounted to 33.9 ± 1.1 µM. The “Effect on MNV titre” value with MNV (MNV-1.CW3) [4] is “reduced MNV titres, but only at 12 h post-treatment”. Also, the CC50 at 5 days in “Cytotoxicity assays [2]” is greater than 100 µM. In the series on NV replicon (HG23 cells), the “Effect on NV RNA levels” value is “dose- and time-dependent reduction of NV RNA levels”; the “SI / therapeutic index” value is given as greater than 31.4. Further, the EC50 in the series on NV replicon (HG23 cells) (setting [9]) amounted to 3200 ± 1500 nM. Further, in the series with NV replicon (HG23 cells) (Norwalk virus), the EC90 turned out to be 49 ± 2.9 µM. This molecule also had a 50% cytotoxic concentration (CC50) at 5 days in “Cytotoxicity assays [3]” greater than 100 µM. Also, in the series on HCV, the “Activity against HCV replication, in words” value is recorded as “inhibits HCV”. Moreover, the “Activity against BVDV replication, in words” value in [6] is “not BVDV replication”.
Regarding `Nc1ccn([C@@H]2CS[C@H](CO)O2)c(=O)n1` [3TC, 4-amino-1-((2R, 5S)-2-(hydroxymethyl)-1,3-oxathiolan-5-yl) pyrimidin-2(1H)-one, reference compound], the “Antiviral activity against MNV” value with MNV (MNV-1.CW3) [1] is reported as “Neither 3TC nor NHC had antiviral activity against MNV”. Moreover, the “Effect on MNV titre” value with MNV (MNV-1.CW3) [4] is listed as “No reduction of MNV titre was observed”. The CC50 at 5 days in “Cytotoxicity assays [2]” and in the series “Cytotoxicity assays [3]” was greater than 100 µM in each case. Besides, the “Effect on NV RNA levels” value in the series on NV replicon (HG23 cells) was “did not show antiviral activity”.
Consider `CC(C)C(=O)OC[C@H]1O[C@@H](n2ccc(N)nc2=O)[C@](C)(F)[C@@H]1OC(=O)C(C)C` [RG-7128], for which, in the series on HCV infections, the “Clinical outcome in HCV trials, in words” value was “demonstrated safety and efficacy against HCV”.
The term inhibition denotes the drop in the measured response relative to a control, in per cent. Regarding `C[C@@]1(O)[C@H](O)[C@@H](CO)O[C@H]1n1ccc(N)nc1=O` [2′-C-MeC, 4-amino-1-((2R, 3R, 4R, 5R)-3,4 dihydroxy-5-(hydroxymethyl)-3-methyltetrahydrofuran-2-yl) pyrimidin-2(1H)-one], the “Reduction of MNV RNA levels” value in the series on MNV (MNV-1.CW3) [1] (0.1 μM, 72 h of exposure) stood at 2 log10. Also, in the series with MNV (MNV-1.CW3) [1] (100 μM, 24 h post-treatment), the “Inhibition of MNV replication (RNA)” value was 3 log10. Also, the EC90 with MNV (MNV-1.CW3) [1] (RAW264.7, 24 h, read-out: EC90, MNV RNA (1 log10 reduction) (converted)) is 25.6 ± 3.7 µM; in the series on MNV (MNV-1.CW3) [1] (setting [8]), 25.4 ± 3.6 µM; with NV replicon (HG23 cells) (Norwalk virus) it was 8.9 ± 1.5 µM. Moreover, the EC50 in the series on MNV (MNV-1.CW3) [1] was 6.9 ± 3.9 µM; in the series on NV replicon (HG23 cells) (setting [9]), 1300 nM; in the series on NV replicon (HG23 cells) (setting [10]), 1290 ± 800 nM; with HCV (read-out: EC50 against HCV, range given for HCV and BVDV together), 2 to 7 µM; in series [6] (read-out: EC50 against BVDV, range given for HCV and BVDV together) it was 2 to 7 µM. In the series on MNV (MNV-1.CW3) [1], the “SI (CC50/EC50), MNV” value is on record as greater than 14.6. Besides, the “Antiviral activity against MNV” value in the series on MNV (MNV-1.CW3) [1] was “dose- and time-dependent reduction of MNV RNA levels”. Also, in the series on MNV (MNV-1.CW3) [4] (Norwalk virus, RAW264.7, 24 h, read-out: Inhibition of MNV replication (titre)), the inhibition at 100 µM worked out at 99%. Also, in the series on MNV (MNV-1.CW3) [4], the “Effect on MNV titre” value was “MNV titres were significantly reduced”. Further, the cytotoxic concentration (CC50) at 5 days in “Cytotoxicity assays [2]” and in the series “Cytotoxicity assays [3]” was greater than 100 µM each time. Further, the figures for the “Reduction in NV RNA” value in the series on NV replicon (HG23 cells) (72 h post-treatment) and in the series with NV replicon (HG23 cells) (96 h post-treatment) were 1.2 log10 and 3.6 log10, respectively. Moreover, the “Reduction of NV RNA level” value in the series with NV replicon (HG23 cells) (0.1 and 1 μM, after 96 h) came out at 2.5 log10. For the same molecule, in the series with NV replicon (HG23 cells), the “Effect on NV RNA levels” value is “dose- and time-dependent reduction of NV RNA levels”. Moreover, in the series with NV replicon (HG23 cells), the “SI / therapeutic index” value is greater than 77.5. In addition, the “NPT II expression, % of untreated cells” value in [5] (1 μM) is reported as 83%; in [5] (10 μM) it was 13%; in series [5] (100 μM) it was 2%. In addition, the IC50 in series [5] was 2.77 ± 1.4 µM.
